Data from patent US5574142A, “Peptide linkers for improved oligonucleotide delivery” (MicroProbe Corporation, priority 1992, dated 1996).
{C6NH2} = aminohexyl phosphate linker

Assays:
[1] = test system: unmodified 20-mer ODN complement with the base sequence 5'-GTGACGAACATGGAGAACAT; assay: Thermal denaturation studies (Tm of duplex with complementary ODN); format: binding; details: equimolar ODN and 20-mer complement, 2 μM solutions in pH 7.2 PBS, A260, 15-85° C. at 0.5° C./min
Method: The ODN-peptide conjugates prepared from ODN1 were further characterized by thermal denaturation studies as described in EXAMPLE III. The dissociation of duplexes formed from equimolar concentrations of the ODN1-peptide conjugates and an unmodified 20-mer ODN target were examined. The changes in absorbance at 260 nm were measured as a function of temperature and the melting temperatures (Tm) were determined. […] Therefore, amino acid residue(s) from proteolysis of the linker are, generally speaking, expected to have little effect on the biological activity of the released ODN.
Thermal Denaturation Studies (ODN1-Peptides). Thermal dissociation curves were obtained by following changes in A260 of aqueous solutions containing equimolar amounts of the particular ODN1-peptide described above and an unmodified 20-mer ODN complement with the base sequence 5'-[…] Sequence ID No.: 14. The 5'-hexylamine modified 16-mer (ODN1) was used as a control in each run. ODNs were prepared as 2 μM solutions in pH 7.2 PBS. A Gilford System 2600 UV-VIS spectrophotometer equipped with a Gilford 2527 Thermoprogrammer was used. […] Absorbance vs. time and the first derivative data were recorded automatically. […] The Tm was determined using the derivative maxima: ODN1, Tm =62.8° C.; ODN1-PEP1, Tm =61.8° C.; ODN1-PEP2, Tm =59.0° C.; […]° C.

[2] = test system: trypsin; assay: Protease degradation studies (trypsin digestion, polyacrylamide gel electrophoresis); format: biochemical; details: 2 μg ODN-peptide, Tris pH 9.0, EDTA, digesting 60 min, 20% denaturing polyacrylamide gel
Description: The model ODN-peptide conjugates were further characterized by their susceptibility to proteolysis with trypsin. (For detail see EXAMPLE IV). As is known in the art, trypsin catalyzes the hydrolysis at the carboxyl side of lysine or arginine residues in the peptides. It was found in accordance with the present invention that trypsin had no effect on the ODN as shown by polyacrylamide gel electrophoresis in FIG. 6.
Protease Degradation Studies (ODN1-Peptides). The three ODN1-peptide conjugates (described in Table I) were characterized by treatment with trypsin. Solutions of 2 μg of the ODN-peptide in 7 μL of water were combined with 1 μL of 10x trypsin disruption solution, 1 μL of 100 mM Tris buffer (pH 9.0), and 1 μL of 100 mM EDTA. After digesting 60 min, the samples were loaded on 20% denaturing polyacrylamide gel. Electrophoresis indicated complete proteolysis of starting ODN1-peptide (see FIG. 6, lanes 1-6). Trypsin had no effect on an unmodified ODN1 control (lanes 8 and 9).

H2 N--(CH2)6 --O--PO2^- -5'O--CTCCATCTTCGTCACA (5' {C6NH2}, sugars by position and backbone not given here) [ODN1, 5'-hexylamine modified 16-mer ODN complementary to initiation codon region of Hepatitis B surface antigen mRNA]
Tm (melting temperature, derivative maxima) [1]: 62.8 °C
proteolysis by trypsin (electrophoresis) [2]: no effect
